Data taken from PubChem BioAssay AID1963858 (Molecular Pharmacology Branch, DTP, NCI, 2024).

System: HOP-62 multicell spheroids with HUVEC/MSC, viability
Assay: Anticancer human tumor HOP-62 cell line growth inhibition [KRAS2];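 note: viability read after a week of compound exposure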;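 for viability, T/C: 100% = DMSO vehicle-treated spheroids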
Details: for IC50: curve of first compound; for viability, T/C: stronger effect = lower value
Outline: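 KRAS-mutant tumor cells were grown as spheroids with HUVEC endothelial cells and human MSCs as stroma. Targeted agents were tested alone and with KRAS pathway inhibitors. Doses started at or near clinical Cmax, or 10 microM, descending half-log.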

[1] = second compound 0.1 µM, first compound 0.01 µM
[2] = second compound 0.1 µM, first compound 0.0316 µM
[3] = second compound 0.1 µM, first compound 0.1 µM
[4] = second compound 0.1 µM, first compound 0.316 µM
[5] = second compound 0.1 µM, first compound 1 µM
[6] = second compound 0.1 µM, first compound 3.16 µM
[7] = second compound 0.316 µM, first compound 0.01 µM
[8] = second compound 0.316 µM, first compound 0.0316 µM
[9] = second compound 0.316 µM, first compound 0.1 µM
[10] = second compound 0.316 µM, first compound 0.316 µM
[11] = second compound 0.316 µM, first compound 1 µM
[12] = second compound 0.316 µM, first compound 3.16 µM
[13] = second compound 1 µM, first compound 0.01 µM
[14] = second compound 1 µM, first compound 0.0316 µM
[15] = second compound 1 µM, first compound 0.1 µM
[16] = second compound 1 µM, first compound 0.316 µM
[17] = second compound 1 µM, first compound 1 µM
[18] = second compound 1 µM, first compound 3.16 µM
[19] = second compound 3.16 µM, first compound 0.01 µM
[20] = second compound 3.16 µM, first compound 0.0316 µM
[21] = second compound 3.16 µM, first compound 0.1 µM
[22] = second compound 3.16 µM, first compound 0.316 µM
[23] = second compound 3.16 µM, first compound 1 µM
[24] = second compound 3.16 µM, first compound 3.16 µM
[25] = second compound 10 µM, first compound 0.01 µM
[26] = second compound 10 µM, first compound 0.0316 µM
[27] = second compound 10 µM, first compound 0.1 µM
[28] = second compound 10 µM, first compound 0.316 µM
[29] = second compound 10 µM, first compound 1 µM
[30] = second compound 10 µM, first compound 3.16 µM
[31] = second compound 0.1 µM, first compound 10 µM
[32] = second compound 0.316 µM, first compound 10 µM
[33] = second compound 1 µM, first compound 10 µM
[34] = second compound 3.16 µM, first compound 10 µM
[35] = second compound 10 µM, first compound 10 µM

With `CC1COCCN1c1cc(-c2ccnn2C)c2ccnc(-c3ccn[nH]3)c2n1` (centres undefined) + CC1OCC2(CCN(c3cnc(Sc4ccnc(N)c4Cl)c(N)n3)CC2)C1N the IC50 (second compound 0.1 µM) was 39.8 nM, the IC50 (second compound 0.316 µM) was 35.8 nM and the IC50 (second compound 1 µM) was 21.8 nM. For the same molecule, the IC50 (second compound 3.16 µM) was 14.6 nM, the IC50 (second compound 10 µM) was under 10 nM and the viability, T/C [1] was 94.7%. It also gave a viability, T/C [2] of 56.7%, a viability, T/C [3] of 23% and a viability, T/C [4] of 12.7%. For the same molecule, the viability, T/C [5] was 11.5%, the viability, T/C [6] was 13.7% and the viability, T/C [7] was 87.3%. The viability, T/C [8] was 53.2%, the viability, T/C [9] was 23.8% and the viability, T/C [10] was 14%. The viability, T/C [11] was 11.9%, the viability, T/C [12] was 11.9% and the viability, T/C [13] was 76.6%. It also gave a viability, T/C [14] of 37%, a viability, T/C [15] of 20.2% and a viability, T/C [16] of 13.4%. It also gave a viability, T/C [17] of 10.1%, a viability, T/C [18] of 8.68% and a viability, T/C [19] of 59.4%. The viability, T/C [20] was 30.6%, the viability, T/C [21] was 18.1% and the viability, T/C [22] was 11.7%. For the same molecule, the viability, T/C [23] was 9.08%, the viability, T/C [24] was 9.24% and the viability, T/C [25] was 46.9%. It also gave a viability, T/C [26] of 26.4%, a viability, T/C [27] of 16.8% and a viability, T/C [28] of 13.6%. It also gave a viability, T/C [29] of 11.2% and a viability, T/C [30] of 9.36%.
`CC(=O)Nc1cccc(-n2c(=O)n(C3CC3)c(=O)c3c(Nc4ccc(I)cc4F)n(C)c(=O)c(C)c32)c1` + CNCc1ccccc1-c1csc(C(C)Nc2nc(C)nc3cc(OC)c(OC)cc23)c1 gave an IC50 (second compound 0.1 µM) of 4.3 nM, an IC50 (second compound 0.316 µM) of 2.84 nM and an IC50 (second compound 1 µM) of 2.32 nM. For the same molecule, the IC50 (second compound 3.16 µM) was under 0.1 nM, the IC50 (second compound 10 µM) was under 0.1 nM and the viability, T/C (second compound 0.1 µM, first compound 0.0001 µM) was 104%. The viability, T/C (second compound 0.1 µM, first compound 0.000316 µM) was 97.2%, the viability, T/C (second compound 0.1 µM, first compound 0.001 µM) was 81.6% and the viability, T/C (second compound 0.1 µM, first compound 0.00316 µM) was 60.1%. It also gave a viability, T/C [1] of 28%, a viability, T/C [2] of 27.4% and a viability, T/C (second compound 0.316 µM, first compound 0.0001 µM) of 106%. For the same molecule, the viability, T/C (second compound 0.316 µM, first compound 0.000316 µM) was 97.4%, the viability, T/C (second compound 0.316 µM, first compound 0.001 µM) was 77% and the viability, T/C (second compound 0.316 µM, first compound 0.00316 µM) was 48%. The viability, T/C [7] was 30.1%, the viability, T/C [8] was 29.9% and the viability, T/C (second compound 1 µM, first compound 0.0001 µM) was 91.2%. For the same molecule, the viability, T/C (second compound 1 µM, first compound 0.000316 µM) was 92.8%, the viability, T/C (second compound 1 µM, first compound 0.001 µM) was 74.1% and the viability, T/C (second compound 1 µM, first compound 0.00316 µM) was 41.4%. For the same molecule, the viability, T/C [13] was 26.8%, the viability, T/C [14] was 25.7% and the viability, T/C (second compound 3.16 µM, first compound 0.0001 µM) was 7.87%. For the same molecule, the viability, T/C (second compound 3.16 µM, first compound 0.000316 µM) was 0.24%, the viability, T/C (second compound 3.16 µM, first compound 0.001 µM) was 3.22% and the viability, T/C (second compound 3.16 µM, first compound 0.00316 µM) was 0.35%. The viability, T/C [19] was 0.07%, the viability, T/C [20] was 0.24% and the viability, T/C (second compound 10 µM, first compound 0.0001 µM) was 0.13%. The viability, T/C (second compound 10 µM, first compound 0.000316 µM) was 0.15%, the viability, T/C (second compound 10 µM, first compound 0.001 µM) was 2.8% and the viability, T/C (second compound 10 µM, first compound 0.00316 µM) was 0.12%. It also gave a viability, T/C [25] of 2.27% and a viability, T/C [26] of 0.31%.
With `COc1cc(Nc2ncc3c(n2)-c2ccc(Cl)cc2C(c2c(F)cccc2OC)=NC3)ccc1C(=O)O` + COc1cc2nc(C)nc(NC(C)c3cc(N)cc(C(F)(F)F)c3)c2cc1OC1CCOC1 the IC50 (second compound 0.1 µM) was 237 nM, the IC50 (second compound 0.316 µM) was 124 nM and the IC50 (second compound 1 µM) was under 31.6 nM. The IC50 (second compound 3.16 µM) was under 31.6 nM, the IC50 (second compound 10 µM) was under 31.6 nM and the viability, T/C [2] was 58%. The viability, T/C [3] was 61.3%, the viability, T/C [4] was 43.1% and the viability, T/C [5] was 39.1%. The viability, T/C [6] was 25.6%, the viability, T/C [31] was 19.1% and the viability, T/C [8] was 53.7%. For the same molecule, the viability, T/C [9] was 50%, the viability, T/C [10] was 44% and the viability, T/C [11] was 41.8%. For the same molecule, the viability, T/C [12] was 23.5%, the viability, T/C [32] was 16.1% and the viability, T/C [14] was 44.8%. The viability, T/C [15] was 42.4%, the viability, T/C [16] was 35.7% and the viability, T/C [17] was 30.5%. The viability, T/C [18] was 23.8%, the viability, T/C [33] was 16.7% and the viability, T/C [20] was 35.5%. It also gave a viability, T/C [21] of 31.4%, a viability, T/C [22] of 28.8% and a viability, T/C [23] of 25.1%. For the same molecule, the viability, T/C [24] was 19.7%, the viability, T/C [34] was 13.2% and the viability, T/C [26] was 32.8%. For the same molecule, the viability, T/C [27] was 28.6%, the viability, T/C [28] was 30.9% and the viability, T/C [29] was 29.1%. The viability, T/C [30] was 18% and the viability, T/C [35] was 8.97%.
For `O=C(c1cc(Cc2n[nH]c(=O)c3ccccc23)ccc1F)N1CCN(C(=O)C2CC2)CC1` + CC1OCC2(CCN(c3cnc(Sc4ccnc(N)c4Cl)c(N)n3)CC2)C1N, the IC50 (second compound 0.1 µM) was 6460 nM, the IC50 (second compound 0.316 µM) was 5420 nM and the IC50 (second compound 1 µM) was 2280 nM. The IC50 (second compound 3.16 µM) was under 31.6 nM, the IC50 (second compound 10 µM) was under 31.6 nM and the viability, T/C [2] was 90%. The viability, T/C [3] was 84.3%, the viability, T/C [4] was 80.8% and the viability, T/C [5] was 85.4%. For the same molecule, the viability, T/C [6] was 66.8%, the viability, T/C [31] was 39.8% and the viability, T/C [8] was 84.2%. For the same molecule, the viability, T/C [9] was 83.7%, the viability, T/C [10] was 78.6% and the viability, T/C [11] was 69.5%. It also gave a viability, T/C [12] of 57.6%, a viability, T/C [32] of 41.1% and a viability, T/C [14] of 101%. The viability, T/C [15] was 70.1%, the viability, T/C [16] was 63.7% and the viability, T/C [17] was 65.5%. It also gave a viability, T/C [18] of 51.2%, a viability, T/C [33] of 34.5% and a viability, T/C [20] of 44.2%. The viability, T/C [21] was 43%, the viability, T/C [22] was 40.3% and the viability, T/C [23] was 44.1%. The viability, T/C [24] was 37%, the viability, T/C [34] was 26.1% and the viability, T/C [26] was 37.1%. For the same molecule, the viability, T/C [27] was 40.5%, the viability, T/C [28] was 36.8% and the viability, T/C [29] was 43.2%. It also gave a viability, T/C [30] of 32.7% and a viability, T/C [35] of 28%.
In the case of `COc1cc(Nc2ncc3c(n2)-c2ccc(Cl)cc2C(c2c(F)cccc2OC)=NC3)ccc1C(=O)O`, the viability, T/C (compound 0.316 µM) is reported as 51% [middle of 5 runs], the viability, T/C (compound 1 µM) is reported as 42.8% [middle of 5 runs] and the viability, T/C (compound 3.16 µM) is reported as 33.8% [middle of 5 runs]. For the same molecule, the viability, T/C (compound 10 µM) was 20.9% [middle of 5 runs].
